According to ChEMBL document CHEMBL1201862, “PubChem BioAssay data set” (2004):
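Interpolation was linear, between the two tested concentrations surrounding the appropriate level; five concentrations were tested over 48 hours in 96-well plates. Abbreviation: GI50, concentration required for 50% inhibition of growth.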 Active and inactive are the calls of the source. Cut-off read from the data, not from the text of the source: active = GI50 up to about 1.1 µM and inactive = higher.

Experiments:
Assay in all cases: NCI anticancer screen, dose series, 48 h
CCRF-CEM = system: CCRF-CEM
U-251 = system: U-251
SW-620 = system: SW-620
COLO 205 = system: COLO 205
KM12 = system: KM12
HOP-62 = system: HOP-62
A498 = system: A498
RPMI-8226 = system: RPMI-8226
SK-MEL-5 = system: SK-MEL-5
A549 = system: A549
RXF 393 = system: RXF 393
HL-60 = system: HL-60
OVCAR-5 = system: OVCAR-5
NCI-H522 = system: NCI-H522
SF-539 = system: SF-539
UO-31 = system: UO-31
M19-MEL = system: M19-MEL
HOP-92 = system: HOP-92
NCI/ADR-RES = system: NCI/ADR-RES
CAKI-1 = system: CAKI-1

## Nc1c(S(=O)(=O)O)cc2cc(S(=O)(=O)O)ccc2c1/N=N/c1ccc(-c2ccc(/N=N/c3c(N)c(S(=O)(=O)O)cc4cc(S(=O)(=O)O)ccc34)c(S(=O)(=O)O)c2)cc1
CCRF-CEM
  GI50: > 89.3 µM (inactive)
U-251
  GI50: > 100 µM (inactive)
SW-620
  GI50: > 100 µM (inactive)
COLO 205
  GI50: > 100 µM (inactive)
KM12
  GI50: > 100 µM (inactive)
HOP-62
  GI50: > 100 µM (inactive)
A498
  GI50: > 100 µM (inactive)
RPMI-8226
  GI50: > 100 µM (inactive)
SK-MEL-5
  GI50: > 100 µM (inactive)
A549
  GI50: > 83.4 µM (inactive)
RXF 393
  GI50: > 100 µM (inactive)
HL-60
  GI50: > 71.1 µM (inactive)
OVCAR-5
  GI50: > 100 µM (inactive)
NCI-H522
  GI50: > 100 µM (inactive)
SF-539
  GI50: > 100 µM (inactive)
UO-31
  GI50: > 92.3 µM (inactive)
M19-MEL
  GI50: > 100 µM (inactive)
HOP-92
  GI50: > 56.9 µM (inactive)
NCI/ADR-RES
  GI50: > 100 µM (inactive)

## COc1cc2cc3c4cc(OC)c(OC)cc4cc[n+]3cc2cc1OC
CCRF-CEM
  GI50: > 100 µM (inactive)
CAKI-1
  GI50: > 100 µM (inactive)
U-251
  GI50: 9.46 µM (inactive)
SW-620
  GI50: > 100 µM (inactive)
COLO 205
  GI50: 78.2 µM (inactive)
KM12
  GI50: > 100 µM (inactive)
HOP-62
  GI50: > 100 µM (inactive)
A498
  GI50: > 100 µM (inactive)
RPMI-8226
  GI50: > 100 µM (inactive)
SK-MEL-5
  GI50: > 100 µM (inactive)
A549
  GI50: > 100 µM (inactive)
RXF 393
  GI50: 46.6 µM (inactive)
OVCAR-5
  GI50: > 100 µM (inactive)
NCI-H522
  GI50: 16.4 µM (inactive)
SF-539
  GI50: > 100 µM (inactive)
UO-31
  GI50: > 100 µM (inactive)
M19-MEL
  GI50: > 100 µM (inactive)
HOP-92
  GI50: > 100 µM (inactive)
NCI/ADR-RES
  GI50: > 100 µM (inactive)

## CC(C)N1CSC(=S)N(Cc2ccccc2)C1
CCRF-CEM
  GI50: 2.78 µM (inactive)
U-251
  GI50: > 10 µM (inactive)
SW-620
  GI50: 3.18 µM (inactive)
COLO 205
  GI50: 3.94 µM (inactive)
KM12
  GI50: 3.36 µM (inactive)
HOP-62
  GI50: > 10 µM (inactive)
A498
  GI50: > 10 µM (inactive)
RPMI-8226
  GI50: 2.58 µM (inactive)
SK-MEL-5
  GI50: 4.66 µM (inactive)
A549
  GI50: > 10 µM (inactive)
RXF 393
  GI50: 2.37 µM (inactive)
HL-60
  GI50: 0.197 µM (active)
SF-539
  GI50: 1.48 µM (inactive)
HOP-92
  GI50: 2.84 µM (inactive)
NCI/ADR-RES
  GI50: > 10 µM (inactive)

## CSc1nc(SC)c2cnn(CC3CO3)c2n1 (configuration not stated)
CCRF-CEM
  GI50: 12.4 µM (inactive)
U-251
  GI50: 19.1 µM (inactive)
SW-620
  GI50: 11.6 µM (inactive)
COLO 205
  GI50: 18.7 µM (inactive)
KM12
  GI50: 20.3 µM (inactive)
HOP-62
  GI50: 18.7 µM (inactive)
A498
  GI50: 62.7 µM (inactive)
RPMI-8226
  GI50: 35.1 µM (inactive)
SK-MEL-5
  GI50: 13.3 µM (inactive)
A549
  GI50: 25.4 µM (inactive)
RXF 393
  GI50: 17.8 µM (inactive)
HL-60
  GI50: 17.5 µM (inactive)
OVCAR-5
  GI50: 17 µM (inactive)
NCI-H522
  GI50: 26.2 µM (inactive)
SF-539
  GI50: 19.5 µM (inactive)
UO-31
  GI50: 19.5 µM (inactive)
M19-MEL
  GI50: 13.6 µM (inactive)
NCI/ADR-RES
  GI50: 13.8 µM (inactive)

## COc1ccc(NC(=O)C(=O)C(C(=O)c2ccccc2)C2OC(=O)c3ccccc32)c([N+](=O)[O-])c1 (configuration not stated)
CCRF-CEM
  GI50: > 100 µM (inactive)
CAKI-1
  GI50: > 100 µM (inactive)
U-251
  GI50: > 100 µM (inactive)
SW-620
  GI50: > 100 µM (inactive)
COLO 205
  GI50: > 100 µM (inactive)
KM12
  GI50: > 100 µM (inactive)
HOP-62
  GI50: > 100 µM (inactive)
A498
  GI50: > 100 µM (inactive)
RPMI-8226
  GI50: > 100 µM (inactive)
SK-MEL-5
  GI50: > 100 µM (inactive)
A549
  GI50: > 100 µM (inactive)
RXF 393
  GI50: > 100 µM (inactive)
HL-60
  GI50: > 100 µM (inactive)
OVCAR-5
  GI50: > 100 µM (inactive)
NCI-H522
  GI50: > 100 µM (inactive)
SF-539
  GI50: > 100 µM (inactive)
UO-31
  GI50: > 100 µM (inactive)
M19-MEL
  GI50: > 100 µM (inactive)
HOP-92
  GI50: > 100 µM (inactive)

## O=C(NN1C(=O)C(Cl)C1c1ccc([N+](=O)[O-])cc1)c1ccccc1O (configuration not stated)
CCRF-CEM
  GI50: > 100 µM (inactive)
U-251
  GI50: > 100 µM (inactive)
SW-620
  GI50: > 100 µM (inactive)
COLO 205
  GI50: > 100 µM (inactive)
KM12
  GI50: > 100 µM (inactive)
HOP-62
  GI50: > 100 µM (inactive)
RPMI-8226
  GI50: > 100 µM (inactive)
SK-MEL-5
  GI50: > 100 µM (inactive)
A549
  GI50: > 100 µM (inactive)
RXF 393
  GI50: > 100 µM (inactive)
HL-60
  GI50: > 100 µM (inactive)
OVCAR-5
  GI50: > 100 µM (inactive)
NCI-H522
  GI50: > 100 µM (inactive)
SF-539
  GI50: > 100 µM (inactive)
UO-31
  GI50: > 100 µM (inactive)
M19-MEL
  GI50: > 100 µM (inactive)
HOP-92
  GI50: > 100 µM (inactive)
